{"source": "patent US11312706B2", "about": "“Cyclohexyl acid pyrazole azines as LPA antagonists” (BRISTOL-MYERS SQUIBB COMPANY, priority 2017, dated 2022)"}
{"biological_target": "T1, human LPA1 (Homo sapiens, UniProt Q92633)", "T1 construct": "expressed in transfected cells; host or cells: Chinese hamster ovary (CHO) cells", "T1 sequence (Q92633 whole entry)": "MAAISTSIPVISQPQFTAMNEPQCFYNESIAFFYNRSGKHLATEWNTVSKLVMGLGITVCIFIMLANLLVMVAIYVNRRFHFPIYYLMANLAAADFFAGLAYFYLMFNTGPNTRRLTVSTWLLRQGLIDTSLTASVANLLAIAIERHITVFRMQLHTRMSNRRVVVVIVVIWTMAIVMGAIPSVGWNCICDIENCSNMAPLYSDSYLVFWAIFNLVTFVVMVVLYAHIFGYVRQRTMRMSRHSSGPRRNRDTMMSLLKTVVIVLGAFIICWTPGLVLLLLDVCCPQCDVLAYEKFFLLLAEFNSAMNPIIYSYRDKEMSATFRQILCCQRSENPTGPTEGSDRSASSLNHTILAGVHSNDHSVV", "experiment": "LPA1 functional antagonist assay (LPA-induced calcium flux)", "format": "cell-based", "settings": "CHO cells overexpressing human LPA1, 10 nM LPA, read-out: hLPA1 IC50", "method": "The effectiveness of compounds of the present invention as LPA1 inhibitors can be determined in an LPA1 functional antagonist assay as follows:\nChinese hamster ovary cells overexpressing human LPA1 were plated overnight (15,000 cells/well) in poly-D-lysine coated 384-well microplates (Greiner bio-one, Cat #781946) in DMEM/F12 medium (Gibco, Cat #11039). Following overnight culture, cells were loaded with calcium indicator dye (AAT Bioquest Inc, Cat #34601) for 30 minutes at 37° C. The cells were then equilibrated to room temperature for 30 minutes before the assay. Test compounds solubilized in DMSO were transferred to 384 well non-binding surface plates (Corning, Cat #3575) using the Labcyte Echo acoustic dispense and diluted with assay buffer [1×HBSS with calcium/magnesium (Gibco Cat #14025-092), 20 mM HEPES (Gibco Cat #15630-080) and 0.1% fatty acid free BSA (Sigma Cat #A9205)] to a final concentration of 0.5% DMSO. Diluted compounds were added to the cells by FDSS6000 (Hamamatsu) at final concentrations ranging from 0.08 nM to 5 μM. and were then incubated for 20 min at room temperature at which time LPA (Avanti Polar Lipids Cat #857130C) was added at final concentrations of 10 nM to stimulate the cells. The compound IC50 value was defined as the concentration of test compound which inhibited 50% of the calcium flux induced by LPA alone. IC50 values were determined by fitting data to a 4-parameter logistic equation (GraphPad Prism, San Diego Calif.).", "units": {"IC50": "nM"}}
{"smiles": "Cn1ncc(-c2ccc(O[C@H]3CCC[C@H](C(=O)O)C3)cn2)c1CNc1nccc(-c2ccccc2)n1", "note": "(relative stereo) [Example 1, Trans-3-((6-(1-methyl-5-(((4-phenylpyrimidin-2-yl)amino)methyl)-1H-pyrazol-4-yl)pyridin-3-yl)oxy)cyclohexane-1-carboxylic acid]", "IC50": 122}
{"smiles": "Cn1ncc(-c2ccc(O[C@H]3CCC[C@H](C(=O)O)C3)cn2)c1COc1cccc(-c2ccccc2)c1", "note": "(relative stereo) [Example 30, Trans-3-((6-(5-(([1,1′-biphenyl]-3-yloxy)methyl)-1-methyl-1H-pyrazol-4-yl)pyridin-3-yl)oxy)cyclohexane-1-carboxylicacid]", "IC50": 104}
{"smiles": "Cc1nc(-c2cnn(C)c2CNc2nccc(OC(C)C)n2)ncc1O[C@H]1CCC[C@H](C(=O)O)C1", "note": "[Example 2, (1S,3S)-3-((2-(5-(((4-Isopropoxypyrimidin-2-yl)amino)methyl)-1-methyl-1H-pyrazol-4-yl)-4-methylpyrimidin-5-yl)oxy)cyclohexane-1-carboxylic acid]", "IC50": 29}
{"smiles": "CCOc1ccnc(NCc2c(-c3ncc(O[C@H]4CCC[C@H](C(=O)O)C4)c(C)n3)cnn2C)n1", "note": "[Example 3, (1S,3S)-3-((2-(5-(((4-ethoxypyrimidin-2-yl)amino)methyl)-1-methyl-1H-pyrazol-4-yl)-4-methyl-pyrimidin-5-yl)oxy)cyclohexane-1-carboxylic acid]", "IC50": 22}
{"smiles": "Cc1nc(-c2cnn(C)c2CNc2nccc(-c3ccccc3)n2)ccc1O[C@H]1CCC[C@H](C(=O)O)C1", "note": "[Example 4, (1S,3S)-3-((2-methyl-6-(1-methyl-5-(((4-phenylpyrimidin-2-yl)amino)methyl)-1H-pyrazol-4-yl)pyridin-3-yl)oxy)cyclohexanecarboxylic acid]", "IC50": 54}
{"smiles": "Cc1cc(-c2ccccn2)nc(NCc2c(-c3ccc(O[C@H]4CCC[C@H](C(=O)O)C4)c(C)n3)cnn2C)n1", "note": "[Example 5, (1S,3S)-3-((2-methyl-6-(1-methyl-5-(((4-methyl-6-(pyridin-2-yl)pyrimidin-2-yl)amino)methyl)-1H-pyrazol-4-yl)pyridin-3-yl)oxy)cyclohexanecarboxylic acid]", "IC50": 217}
{"smiles": "COc1ccnc(NCc2c(-c3ncc(O[C@H]4CCC[C@H](C(=O)O)C4)c(C)n3)cnn2C)n1", "note": "[Example 6, (1S,3S)-3-((2-(5-(((4-methoxy-pyrimidin-2-yl)amino)methyl)-1-methyl-1H-pyrazol-4-yl)-4-methylpyrimidin-5-yl)oxy)cyclohexane-1-carboxylic acid]", "IC50": 74}
{"smiles": "Cc1nc(-c2cnn(C)c2CNc2nccc(OC3CC3)n2)ncc1O[C@H]1CCC[C@H](C(=O)O)C1", "note": "[Example 7, (1S,3S)-3-((2-(5-(((4-cyclopropoxy-pyrimidin-2-yl)amino)methyl)-1-methyl-1H-pyrazol-4-yl)-4-methylpyrimidin-5-yl)oxy)cyclohexane-1-carboxylic acid]", "IC50": 22}
{"smiles": "Cc1nc(-c2cnn(C)c2CNc2nccc(OCC(C)(F)F)n2)ncc1O[C@H]1CCC[C@H](C(=O)O)C1", "note": "[Example 8, (1S,3S)-3-((2-(5-(((4-(2,2-difluoro-propoxy)pyrimidin-2-yl)amino)methyl)-1-methyl-1H-pyrazol-4-yl)-4-methylpyrimidin-5-yl)oxy)cyclo-hexane-1-carboxylic acid]", "IC50": 33}
{"smiles": "Cc1nc(-c2cnn(C)c2CNc2nccc(Oc3ccccc3)n2)ncc1O[C@H]1CCC[C@H](C(=O)O)C1", "note": "[Example 9, (1S,3S)-3((4-methyl-2-(1-methyl-5-(((4-phenoxypyrimidin-2-yl)amino)-methyl)-1H-pyrazol-4-yl)pyrimidin-5-yl)oxy)cyclohexane-1-carboxylic acid]", "IC50": 32}
{"smiles": "Cc1nc(-c2cnn(C)c2CNc2nccc(C(C)C)n2)ncc1O[C@H]1CCC[C@H](C(=O)O)C1", "note": "[Example 10, (1S,3S)-3-((2-(5-(((4-isopropyl-pyrimidin-2-yl)amino)methyl)-1-methyl-1H-pyrazol-4-yl)-4-methyl-pyrimidin-5-yl)oxy)cyclohexane carboxylic acid]", "IC50": 47}
{"smiles": "Cc1nc(-c2cnn(C)c2CNc2nccc(C(C)(C)C)n2)ncc1O[C@H]1CCC[C@H](C(=O)O)C1", "note": "[Example 11, (1S,3S)-3-((2-(5-(((4-(tert-butyl)pyrimidin-2-yl)amino)methyl)-1-methyl-1H-pyrazol-4-yl)-4-methyl-pyrimidin-5-yl)oxy)cyclohexane carboxylic acid]", "IC50": 50}
{"smiles": "Cc1nc(-c2cnn(C)c2CNc2nccc(C3CC3)n2)ncc1O[C@H]1CCC[C@H](C(=O)O)C1", "note": "[Example 12, (1S,3S)-3-((2-(5-(((4-cyclopropyl-pyrimidin-2-yl)amino)methyl)-1-methyl-1H-pyrazol-4-yl)-4-methyl-pyrimidin-5-yl)oxy)cyclohexane-1-carboxylic acid]", "IC50": 172}
{"smiles": "Cc1nc(-c2cnn(C)c2CNc2nccc(-c3ccccc3)n2)ncc1O[C@H]1CCC[C@H](C(=O)O)C1", "note": "[Example 13, (1S,3S)-3-((4-methyl-2-(1-methyl-5-(((4-phenylpyrimidin-2-yl)amino)methyl)-1H-pyrazol-4-yl)pyrimidin-5-yl)oxy)cyclohexanecarboxylic acid]", "IC50": 33}
{"smiles": "Cc1nc(-c2cnn(C)c2CNc2ncnc(C3CCCC3)n2)ncc1O[C@H]1CCC[C@H](C(=O)O)C1", "note": "[Example 15, (1S,3S)-3-((2-(5-(((4-cyclopenty1-1,3,5-triazin-2-yl)amino)methyl)-1-methyl-1H-pyrazol-4-yl)-4-methylpyrimidin-5-yl)oxy)cyclohexane carboxylic acid]", "IC50": 148}
{"smiles": "Cc1nc(-c2cnn(C)c2CNc2nccc(OCC(F)(F)F)n2)ncc1O[C@H]1CCC[C@H](C(=O)O)C1", "note": "[Example 16, (1S,3S)-3-((4-methyl-2-(1-methyl-5-(((4-(2,2,2-trifluoroethoxy)pyrimidin-2-yl)amino)methyl)-1H-pyrazol-4-yl)pyrimidin-5-yl)oxy)cyclohexane-1-carboxylic acid]", "IC50": 12}
{"smiles": "Cc1nc(-c2cnn(C)c2CNc2nccc(-c3ccccn3)n2)ncc1O[C@H]1CCC[C@H](C(=O)O)C1", "note": "[Example 17, (1S,3S)-3-((4-methyl-2-(1-methyl-5-(((4-(pyridin-2-yl)pyrimidin-2-yl)amino)methyl)-1H-pyrazol-4-yl)pyrimidin-5-yl)oxy)cyclohexane-1-carboxylic acid]", "IC50": 79}
{"smiles": "Cc1nc(-c2cnn(C)c2Nc2nccc(OC(C)C)n2)ncc1O[C@H]1CCC[C@H](C(=O)O)C1", "note": "[Example 18, (S,3S)-3-((2-(5-((4-isopropoxypyrimidin-2-yl)amino)-1-methyl-1H-pyrazol-4-yl)-4-methyl-pyrimidin-5-yl)oxy)cyclohexane-1-carboxylic acid]", "IC50": 1010}
{"smiles": "CCCc1ccnc(Nc2c(-c3ncc(O[C@H]4CCC[C@H](C(=O)O)C4)c(C)n3)cnn2C)n1", "note": "[Example 19, (1S,3S)-3-((4-methyl-2-(1-methyl-5-((4-propylpyrimidin-2-yl)amino)-1H-pyrazol-4-yl)pyrimidin-5-yl)oxy)cyclohexane-1-carboxylic acid]", "IC50": 1410}
{"smiles": "CCCOc1ccnc(Nc2c(-c3ncc(O[C@H]4CCC[C@H](C(=O)O)C4)c(C)n3)cnn2C)n1", "note": "[Example 20, (1S,3S)-3-((4-methyl-2-(1-methyl-5-((4-propoxypyrimidin-2-yl)amino)-1H-pyrazol-4-yl)pyrimidin-5-yl)oxy)cyclohexane-1-carboxylic acid]", "IC50": 1230}
{"smiles": "CCOc1ccnc(NCc2c(-c3ncc(O[C@H]4CCC[C@H](C(=O)O)C4)c(CC)n3)cnn2C)n1", "note": "[Example 21, (1S,3S)-3-((2-(5-(((4-ethoxypyrimidin-2-yl)amino)methyl)-1-methyl-1H-pyrazol-4-yl)-4-ethylpyrimidin-5-yl)oxy)cyclohexane-1-carboxylicacid]", "IC50": 5}
{"smiles": "CCc1nc(-c2cnn(C)c2CNc2nccc(OC3CC3)n2)ncc1O[C@H]1CCC[C@H](C(=O)O)C1", "note": "[Example 22, (1S,3S)-3-((2-(5-(((4-cyclopropoxy-pyrimidin-2-yl)amino)methyl)-1-methyl-1H-pyrazol-4-yl)-4-ethylpyrimidin-5-yl)oxy)cyclohexane-1-carboxylic acid]", "IC50": 7}
{"smiles": "CCCOc1ccnc(NCc2c(-c3ncc(O[C@H]4CCC[C@H](C(=O)O)C4)c(CC)n3)cnn2C)n1", "note": "[Example 23, (1S,3S)-3-((4-ethyl-2-(1-methyl-5-(((4-propoxypyrimidin-2-yl)amino)methyl)-1H-pyrazol-4-yl)pyrimidin-5-yl)oxy) cyclohexane-1-carboxylic acid]", "IC50": 2}
{"smiles": "CCc1nc(-c2cnn(C)c2CNc2nccc(OC)n2)ncc1O[C@H]1CCC[C@H](C(=O)O)C1", "note": "[Example 24, (1S,3S)-3-((4-ethyl-2-(5-(((4-methoxypyrimidin-2-yl)amino)methyl)-1-methyl-1H-pyrazol-4-yl)pyrimidin-5-yl)oxy)cyclohexane-1-carboxylic acid]", "IC50": 350}
{"smiles": "CCc1nc(-c2cnn(C)c2CNc2nccc(OCCCF)n2)ncc1O[C@H]1CCC[C@H](C(=O)O)C1", "note": "[Example 25, (1S,3S)-3-((4-ethyl-2-(5-(((4-(3-fluoropropoxy)pyrimidin-2-yl)amino)methyl)-1-methyl-1H-pyrazol-4-yl)pyrimidin-5-yl)oxy)cyclohexane-1-carboxylic acid]", "IC50": 18}
{"smiles": "CCc1nc(-c2cnn(C)c2CNc2nccc(OCC(C)(F)F)n2)ncc1O[C@H]1CCC[C@H](C(=O)O)C1", "note": "[Example 26]", "IC50": 15}
